Laboratory results as given in ChEMBL document CHEMBL3792365, “Dioxol and dihydrodioxin analogs of 2- and 3-phenylacetonitriles as potent anti-cancer agents with nanomolar activity against a variety of human cancer cells” (2016).

How the values were obtained:
Type in all cases: functional
MDA-MB-435 = test: Growth inhibition of human MDA-MB-435 cells at 10 uM after 48 hrs by sulforhodamine B assay; settings: MDA-MB-435, 48 h, values are per cent of control
[1] = Growth inhibition of human SNB19 cells at 10 uM after 48 hrs by sulforhodamine B assay; settings: SNB-19, 48 h, values are per cent of control
[2] = Growth inhibition of human Caki1 cells at 10 uM after 48 hrs by sulforhodamine B assay; settings: CAKI-1, 48 h, values are per cent of control
[3] = Growth inhibition of human DU145 cells at 10 uM after 48 hrs by sulforhodamine B assay; settings: DU-145, 48 h, values are per cent of control
NCI-H522 = test: Growth inhibition of human NCI-H522 cells at 10 uM after 48 hrs by sulforhodamine B assay; settings: NCI-H522, 48 h, values are per cent of control
A498 = test: Growth inhibition of human A498 cells at 10 uM after 48 hrs by sulforhodamine B assay; settings: A498, 48 h, values are per cent of control
SN12C = test: Growth inhibition of human SN12C cells at 10 uM after 48 hrs by sulforhodamine B assay; settings: values are per cent of control
[4] = Growth inhibition of human SW620 cells at 10 uM after 48 hrs by sulforhodamine B assay; settings: SW-620, 48 h, values are per cent of control
NCI-H322M = test: Growth inhibition of human NCI-H322M cells at 10 uM after 48 hrs by sulforhodamine B assay; settings: values are per cent of control
[5] = Growth inhibition of human OVCAR8 cells at 10 uM after 48 hrs by sulforhodamine B assay; settings: OVCAR-8, 48 h, values are per cent of control
[6] = Growth inhibition of human SKOV3 cells at 10 uM after 48 hrs by sulforhodamine B assay; settings: SK-OV-3, 48 h, values are per cent of control
[7] = Growth inhibition of human HCT15 cells at 10 uM after 48 hrs by sulforhodamine B assay; settings: HCT-15, 48 h, values are per cent of control
SK-MEL-5 = test: Growth inhibition of human SK-MEL-5 cells at 10 uM after 48 hrs by sulforhodamine B assay; settings: SK-MEL-5, 48 h, values are per cent of control
T47D = test: Growth inhibition of human T47D cells at 10 uM after 48 hrs by sulforhodamine B assay; settings: values are per cent of control
MDA-MB-231 = test: Growth inhibition of human MDA-MB-231 cells at 10 uM after 48 hrs by sulforhodamine B assay; settings: MDA-MB-231, 48 h, values are per cent of control
NCI-H460 = test: Growth inhibition of human NCI-H460 cells at 10 uM after 48 hrs by sulforhodamine B assay; settings: NCI-H460, 48 h, values are per cent of control
HT-29 = test: Growth inhibition of human HT-29 cells at 10 uM after 48 hrs by sulforhodamine B assay; settings: HT-29, 48 h, values are per cent of control
[8] = Growth inhibition of human HCT116 cells at 10 uM after 48 hrs by sulforhodamine B assay; settings: HCT-116, 48 h, values are per cent of control
[9] = Growth inhibition of human NCI-ADR-RES cells at 10 uM after 48 hrs by sulforhodamine B assay; settings: values are per cent of control
[10] = Growth inhibition of human COLO205 cells at 10 uM after 48 hrs by sulforhodamine B assay; settings: COLO 205, 48 h, values are per cent of control
[11] = Growth inhibition of human OVCAR4 cells at 10 uM after 48 hrs by sulforhodamine B assay; settings: OVCAR-4, 48 h, values are per cent of control
M14 = test: Growth inhibition of human M14 cells at 10 uM after 48 hrs by sulforhodamine B assay; settings: M14, 48 h, values are per cent of control
[12] = Growth inhibition of human BT549 cells at 10 uM after 48 hrs by sulforhodamine B assay; settings: BT-549, 48 h, values are per cent of control
U-251 = test: Growth inhibition of human U251 cells at 10 uM after 48 hrs by sulforhodamine B assay; settings: U-251, 48 h, values are per cent of control
ACHN = test: Growth inhibition of human ACHN cells at 10 uM after 48 hrs by sulforhodamine B assay; settings: values are per cent of control
[13] = Growth inhibition of human SF295 cells at 10 uM after 48 hrs by sulforhodamine B assay; settings: SF-295, 48 h, values are per cent of control
[14] = Growth inhibition of human Hs 578T cells at 10 uM after 48 hrs by sulforhodamine B assay; settings: values are per cent of control
[15] = Growth inhibition of human OVCAR5 cells at 10 uM after 48 hrs by sulforhodamine B assay; settings: OVCAR-5, 48 h, values are per cent of control
A549 = test: Growth inhibition of human A549/ATCC cells at 10 uM after 48 hrs by sulforhodamine B assay; settings: A549, 48 h, values are per cent of control
[16] = Growth inhibition of human UACC62 cells at 10 uM after 48 hrs by sulforhodamine B assay; settings: UACC-62, 48 h, values are per cent of control
KM12 = test: Growth inhibition of human KM12 cells at 10 uM after 48 hrs by sulforhodamine B assay; settings: KM12, 48 h, values are per cent of control
[17] = Growth inhibition of human SF539 cells at 10 uM after 48 hrs by sulforhodamine B assay; settings: SF-539, 48 h, values are per cent of control
NCI-H226 = test: Growth inhibition of human NCI-H226 cells at 10 uM after 48 hrs by sulforhodamine B assay; settings: NCI-H226, 48 h, values are per cent of control
NCI-H23 = test: Growth inhibition of human NCI-H23 cells at 10 uM after 48 hrs by sulforhodamine B assay; settings: NCI-H23, 48 h, values are per cent of control
MDA-MB-468 = test: Growth inhibition of human MDA-MB-468 cells at 10 uM after 48 hrs by sulforhodamine B assay; settings: MDA-MB-468, 48 h, values are per cent of control
SR = test: Growth inhibition of human SR cells at 10 uM after 48 hrs by sulforhodamine B assay; settings: values are per cent of control
K562 = test: Growth inhibition of human K562 cells at 10 uM after 48 hrs by sulforhodamine B assay; settings: K562, 48 h, values are per cent of control
[18] = Growth inhibition of human SF268 cells at 10 uM after 48 hrs by sulforhodamine B assay; settings: SF-268, 48 h, values are per cent of control
[19] = Growth inhibition of human LOXIMVI cells at 10 uM after 48 hrs by sulforhodamine B assay; settings: LOX IMVI, values are per cent of control
[20] = Growth inhibition of human TK10 cells at 10 uM after 48 hrs by sulforhodamine B assay; settings: TK-10, 48 h, values are per cent of control

Row | SMILES | growth, % of control at 10 µM (MDA-MB-435) [%] | growth, % of control at 10 µM [1] [%] | growth, % of control at 10 µM [2] [%] | growth, % of control at 10 µM [3] [%] | growth, % of control at 10 µM (NCI-H522) [%] | growth, % of control at 10 µM (A498) [%] | growth, % of control at 10 µM (SN12C) [%] | growth, % of control at 10 µM [4] [%] | growth, % of control at 10 µM (NCI-H322M) [%] | growth, % of control at 10 µM [5] [%] | growth, % of control at 10 µM [6] [%] | growth, % of control at 10 µM [7] [%] | growth, % of control at 10 µM (SK-MEL-5) [%] | growth, % of control at 10 µM (T47D) [%] | growth, % of control at 10 µM (MDA-MB-231) [%] | growth, % of control at 10 µM (NCI-H460) [%] | growth, % of control at 10 µM (HT-29) [%] | growth, % of control at 10 µM [8] [%] | growth, % of control at 10 µM [9] [%] | growth, % of control at 10 µM [10] [%] | further results
1 | N#C/C(=C\c1cccnc1Cl)c1ccc2c(c1)OCO2 | 97.1 | 101 | 103 | 115 | 71.7 | 90.7 | 91.7 | 94.8 | 97 | 56.2 | 103 | 98.8 | 92.2 | 93.4 | 99.8 | 102 | 106 | 94 | 101 | 112 | growth, % of control at 10 µM [11]: 100%; growth, % of control at 10 µM (M14): 94.9%; growth, % of control at 10 µM [12]: 88.5%; growth, % of control at 10 µM (U-251): 95.8%; growth, % of control at 10 µM (ACHN): 109%; growth, % of control at 10 µM [13]: 110%; growth, % of control at 10 µM [14]: 129%; growth, % of control at 10 µM [15]: 106%; growth, % of control at 10 µM (A549): 103%; growth, % of control at 10 µM [16]: 85.7%; growth, % of control at 10 µM (KM12): 109%; growth, % of control at 10 µM [17]: 99.8%; growth, % of control at 10 µM (NCI-H226): 98.9%; growth, % of control at 10 µM (NCI-H23): 97.2%; growth, % of control at 10 µM (MDA-MB-468): 93.7%; growth, % of control at 10 µM (SR): 92.8%; growth, % of control at 10 µM (K562): 113%; growth, % of control at 10 µM [18]: 109%; growth, % of control at 10 µM [19]: 103%; growth, % of control at 10 µM [20]: 106%
2 | COc1ccc(/C=C(\C#N)c2ccc3c(c2)OCO3)c2ccccc12 | -26.3 | 36.1 | 30.8 | 14.9 | 1.4 | -8.4 | 38.6 | 10.6 | 34.3 | 29 | 26.9 | 21.4 | 19.1 | 38.2 | 39.4 | 13.2 | 10 | 21.1 | 10.5 | 7.6 | growth, % of control at 10 µM [11]: 49.7%; growth, % of control at 10 µM (M14): 16.2%; growth, % of control at 10 µM [12]: 26.6%; growth, % of control at 10 µM (U-251): 18.7%; growth, % of control at 10 µM (ACHN): 44.7%; growth, % of control at 10 µM [13]: 5.6%; growth, % of control at 10 µM [14]: -14.1%; growth, % of control at 10 µM [15]: 55.7%; growth, % of control at 10 µM (A549): 31.7%; growth, % of control at 10 µM [16]: 25.1%; growth, % of control at 10 µM (KM12): 21%; growth, % of control at 10 µM [17]: -42.9%; growth, % of control at 10 µM (NCI-H226): 38.5%; growth, % of control at 10 µM (NCI-H23): 49.9%; growth, % of control at 10 µM (MDA-MB-468): -14.5%; growth, % of control at 10 µM (SR): 18.4%; growth, % of control at 10 µM (K562): 19.1%; growth, % of control at 10 µM [18]: 34%; growth, % of control at 10 µM [19]: 35.2%; growth, % of control at 10 µM [20]: 43.8%
